Like-named read-outs stand apart in the source and are kept apart here.
Tests used:
Assay type in all cases: cell-based
[1] = test system: Chlorella vulgaris; test: Stability of Chlorella vulgaris assessed by the CI20 of atrazine; conditions: 10 min green light, room temperature; + or − two sigma 0.002; algae stored at 4° C. and 20° C.; atrazine tested 0-0.04 mg/L
Description: The stability of Chlorella vulgaris was evaluated by determining the Cl20 of atrazine using seven different atrazine concentrations. Cl20 is the concentration of atrazine inhibiting 20% of the efficacy emitted by Chlorella vulgaris as compared to a control Chlorella vulgaris preparation. The Cl20 is statistically determined with the software Icp version 2.0. Stability over time is determined by assessing the number of Cl20 within a range of 2 σ of average.
A Chlorella vulgaris culture was prepared as described in Example 1 above. As indicated above, the algae were reactivated before testing during 90 minutes under ambient light and at room temperature.
The culture was then incubated with atrazine for 10 minutes under green light and at room temperature. The cellular concentration of the algae was 5×10^6 cells/mL of solution (100 μL algae in 2 mL of atrazine-containing aqueous solution (i.e. distilled water)). The concentration of atrazine varied between 0 and 0.04 mg/L. Testing was performed in triplicates. The fluorescence emitted by each formulation was then measured with Luminotox™, a fluorometer that measures photosynthetic activity.

[2] = test system: Dunaliella tertiolecta; conditions: 15 min. green light exposition at room temperature; neutral pH (pH 7); 350 000 cells/mL
Description: (§1) The detection threshold was obtained with the geometric mean. It was calculated with the following formula: Detection threshold=(CSEO×CMEO)^1/2 where
(§2) CMEO=minimal concentration resulting in a detectable inhibition of the algae efficacy.
(§3) CSEO and CMEO were estimated by a variance analysis ANNOVA™ followed by a Dunnett multiple comparison by comparing the mean efficacy of each tested concentration with the control mean. Calculations were performed with TOXSTAT™ (Version 3.5).
A Dunaliella tertiolecta culture was prepared as described in Example 2 above. As indicated in Example 2, the algae were reactivated before testing under ambient light and at room temperature during 45 minutes.
The algae formulations were then incubated for 15 minutes with water containing one of the various contaminants listed in Table 2 below at neutral pH under green light and at room temperature. The algae concentration was 350 000 cells/mL (500 μL of algae within 2 mL of aqueous solution (i.e. distilled water) containing substance to detect at indicated concentrations). For each substances, 5 concentrations in triplicates were tested. The TOXSTAT™ software was used to calculate from inhibition values and standard deviations obtained, the maximum concentration without observable effect and the minimal concentration with observable effects (See Table 2 below). The temperature was controlled by a thermostatic bath. Tests were performed in triplicates. The fluorescence emitted by each formulation was then measured with Luminotox™, a fluorometer that measures photosynthetic activity and detection threshold determined as described in the Example above.

[3] = test system: Anabaena sp.; test: Detection of bioactive molecules with Anabaena sp.: inhibition of photosynthetic fluorescence (Luminotox); conditions: 10 min, neutral pH; for inhibition at 0.001 ppm: 1 ppb
Description: The photosynthetic efficiency is determined with the following formula (F2−F1)/F2. Any molecule affecting directly or indirectly the photosystems modify either F1 or F2 which modification necessarily decreases the photosynthetic efficiency. The inhibition curve of a particular molecule is determined by calculating the activity of the photosystems in the absence of the molecule and in the presence of the molecule and comparing both efficiency as follows as described in Conrad 1993:
Without Inhibitor (wi): efficiency(wi)=(F2(wi)−F1(wi)/F2(wi) With Inhibitor: Relative photosynthetic efficiency(sample)=(F2(sample)−F1(sample))/F2(wi) Percentage Efficiency: efficiency (%)=(efficiency(sample)×100)/efficiency(wi) Percentage Inhibition: Inhibition (%)=100−efficiency (%)
An Anabaena sp. culture was prepared as described in Example 3 above. As indicated in Example 3, the cyanobacteria were reactivated before testing under ambient light and at room temperature during 60 minutes.
The culture was then incubated with bioactive molecules listed in Table 1 below at concentrations of 1 ppm (except for atrazine which was used at a concentration of 1 ppb) for 10 minutes under ambient light followed by 10 minutes under green light and neutral pH. The cellular concentration was 1.0×10^7 cells/mL (100 μL of cyanobacteria within 2 mL of bioactive agent containing aqueous solution (i.e. distilled water)). Testing was performed in triplicates. The fluorescence emitted by each formulation was then measured with Luminotox™ a fluorometer that measures photosynthetic activity.

[4] = test system: Chlorella vulgaris; conditions: 10-15 min. green light exposition at room temperature; neutral pH (pH 7); 5×10^6 cells/mL
Description: The algae concentration was 5×10^6 cells/mL (100 μL of algae within 2 mL of aqueous solution (i.e. distilled water)) containing the substance to detect at indicated concentrations. For each substances, 5 concentrations in triplicates were tested. The TOXSTAT™ software was used to calculate from inhibition values and standard deviations obtained, the maximum concentration without observable effect and the minimal concentration with observable effects. The threshold was calculated with the following formula: (maximum concentration without observable effect x minimal concentration with observable effects)^1/2 (See Table 2 below). The temperature was controlled by a thermostatic bath.
as §1, §2, §3

[5] = test system: Chlorella vulgaris; test: Tetracycline detection with Chlorella vulgaris (ambient light, 35° C., low algae concentration); conditions: within 15 minutes, neutral pH, 2.5×10^6 cells/mL
Description: A Chlorella vulgaris culture was prepared as described in Example 1 above. As indicated in Example 1, the algae were reactivated before testing under ambient light and at room temperature during 90 minutes.
The algae formulation was then incubated for 15 or 60 minutes with water containing tetracycline at the indicated concentrations (FIG. 17) under ambient light at a temperature of 35° C. and at a neutral pH. Algae concentrations of 2.5×10^6 cells/mL (50 μL of algae within 2 mL of tetracycline-containing aqueous solutions (i.e. distilled water)) were tested. Testing was performed in triplicates. The fluorescence emitted by each formulation was then measured with Luminotox™, a fluorometer that measures photosynthetic activity.

SMILES: CCNc1nc(Cl)nc(NC(C)C)n1 [atrazine]
- CI20 (concentration inhibiting 20% of the efficacy), average over storage [1]: 0.0037
- Detection threshold [2]: 0.01 ppm
- inhibition at 0.001 ppm ([3]; 10 min ambient light followed by 10 min green light, read-out: Inhibition obtained (followed by 10 min green light)): 13%
- inhibition at 0.001 ppm ([3]; 10 min ambient light, read-out: Inhibition obtained (10 min ambiant light)): 1%
- Detection threshold [4]: 0.0007 ppm

SMILES: CN(C)[C@@H]1C(O)=C(C(N)=O)C(=O)[C@@]2(O)C(O)=C3C(=O)c4c(O)cccc4[C@@](C)(O)[C@H]3C[C@@H]12 [tetracycline]
- inhibition at 1 ppm ([3]; 10 min ambient light followed by 10 min green light, read-out: Inhibition obtained at 1 ppm (followed by 10 min green light)): 30%
- inhibition at 1 ppm ([3]; 10 min ambient light, 1.0×10^7 cells/mL, read-out: Inhibition obtained at 1 ppm (10 min ambiant light)): 0%
- Concentration detected [5]: 10 µg/mL
